Test results published in ChEMBL document CHEMBL5331095, “Structure-activity relationship and biological evaluation of xanthine derivatives as PCSK9 inhibitors for the treatment of atherosclerosis” (Eur J Med Chem, 2023).
Active and inactive are the calls of the source. The calls are words filed in the database; no cut-off is given here.

Key:
[1] = biological target: Proprotein convertase subtilisin/kexin type 9 (Homo sapiens) (UniProt Q8NBP7); assay: Inhibition of PCSK9 transcriptional activity in human HepG2 cells stably expressing luciferase reporter plasmid containing PCSK9 promoter assessed as decrease in luciferase activity at 10 ug/ml incubated for 24 hrs by Luciferase assay relative to control; assay type: cell-based; conditions: dose 10.0 µg/ml
[2] = Cytotoxicity against human HepG2 cells assessed as reduction in cell viability by measuring toxic concentration incubated for 24 hrs by MTT assay; assay type: toxicity, cell-based; conditions: read-out: TC50
[3] = system: PCSK9 transcriptional activity; assay: Therapeutic index, ratio of TC50 for cytotoxicity against human HepG2 cells to IC50 for inhibition of PCSK9 transcriptional activity in human HepG2 cells stably expressing luciferase reporter plasmid containing PCSK9 promoter; assay type: toxicity, cell-based
[4] = Acute toxicity in C57BL/6 mouse assessed as body weight change upto 1000 mg/kg, IG and measured every day for 1 week; assay type: organism-based; conditions: in vivo, po, 168 h, time 1 weeks
[5] = Acute toxicity in C57BL/6 mouse assessed as behavioral change upto 1000 mg/kg, IG and measured every day for 1 week; assay type: organism-based; conditions: in vivo, po, 168 h, time 1 weeks
[6] = Acute toxicity in C57BL/6 mouse assessed as survival upto 1000 mg/kg, IG and measured every day for 1 week; assay type: organism-based; conditions: in vivo, po, 168 h, time 1 weeks
[7] = Acute toxicity in C57BL/6 mouse assessed as lethality upto 1000 mg/kg, IG and measured every day for 1 week; assay type: organism-based; conditions: in vivo, po, time 1 weeks
[8] = system: Mus musculus; assay: In vivo inhibition of PCSK9 in high-fat diet fed ApoE knockout C57BL/6 mouse assessed as decrease in PCSK9 expression in serum at 30 mg/kg, IG for 8 weeks by ELISA; assay type: functional, organism-based
[9] = system: Mus musculus; assay: In vivo inhibition of PCSK9 in high-fat diet fed ApoE knockout C57BL/6 mouse assessed as decrease in PCSK9 expression in liver at 30 mg/kg, IG for 8 weeks by Western blot analysis; assay type: functional, organism-based
[10] = biological target: Proprotein convertase subtilisin/kexin type 9 (Homo sapiens) (UniProt Q8NBP7); assay: Inhibition of PCSK9 in human HepG2 cells assessed as decrease in PCSK9 protein expression level at 2.5 to 25 uM incubated for 24 hrs by Western blot analysis; assay type: cell-based; conditions: dose 2.5-25 µM
[11] = biological target: Proprotein convertase subtilisin/kexin type 9 (Homo sapiens) (UniProt Q8NBP7); assay: Inhibition of PCSK9 in human HepG2 cells assessed as increase in LDLR protein expression level at 2.5 to 25 uM incubated for 24 hrs by Western blot analysis; assay type: cell-based; conditions: dose 2.5-25 µM
[12] = biological target: Proprotein convertase subtilisin/kexin type 9 (Homo sapiens) (UniProt Q8NBP7); assay: Inhibition of PCSK9 in human HepG2 cells assessed as increase in LDL-cholesterol cellular uptake by measuring DiI fluorescence at 2.5 to 25 uM incubated for 24 hrs by Dil-LDL staining based flow cytometry analysis; assay type: cell-based; conditions: dose 2.5-25 µM
[13] = biological target: Proprotein convertase subtilisin/kexin type 9 (Homo sapiens) (UniProt Q8NBP7); assay: Inhibition of PCSK9 in human HepG2 cells assessed as fold increase in LDL-cholesterol cellular uptake by measuring DiI fluorescence at 25 uM incubated for 24 hrs by Dil-LDL staining based flow cytometry analysis relative to control; assay type: cell-based
[14] = system: Mus musculus; assay: Antiatherosclerotic activity in high-fat diet fed ApoE knockout C57BL/6 mouse assessed as decrease in high-fat diet induced increase in body weight at 30 mg/kg, IG for 8 weeks; assay type: functional, organism-based
[15] = system: Mus musculus; assay: Antiatherosclerotic activity in high-fat diet fed ApoE knockout C57BL/6 mouse assessed as decrease in serum total cholesterol level at 30 mg/kg, IG for 8 weeks by lipid profiling assay; assay type: functional, organism-based
[16] = system: Mus musculus; assay: Antiatherosclerotic activity in high-fat diet fed ApoE knockout C57BL/6 mouse assessed as decrease in serum triglyceride level at 30 mg/kg, IG for 8 weeks by lipid profiling assay; assay type: functional, organism-based

Sequence of Proprotein convertase subtilisin/kexin type 9 (Homo sapiens) (Q8NBP7 31-152 limits assumed): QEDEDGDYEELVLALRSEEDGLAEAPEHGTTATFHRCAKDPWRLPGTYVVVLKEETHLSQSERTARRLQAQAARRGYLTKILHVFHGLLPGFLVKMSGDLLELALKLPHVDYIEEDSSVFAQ
Sequence of Proprotein convertase subtilisin/kexin type 9 (Homo sapiens) (Q8NBP7 153-692 limits assumed): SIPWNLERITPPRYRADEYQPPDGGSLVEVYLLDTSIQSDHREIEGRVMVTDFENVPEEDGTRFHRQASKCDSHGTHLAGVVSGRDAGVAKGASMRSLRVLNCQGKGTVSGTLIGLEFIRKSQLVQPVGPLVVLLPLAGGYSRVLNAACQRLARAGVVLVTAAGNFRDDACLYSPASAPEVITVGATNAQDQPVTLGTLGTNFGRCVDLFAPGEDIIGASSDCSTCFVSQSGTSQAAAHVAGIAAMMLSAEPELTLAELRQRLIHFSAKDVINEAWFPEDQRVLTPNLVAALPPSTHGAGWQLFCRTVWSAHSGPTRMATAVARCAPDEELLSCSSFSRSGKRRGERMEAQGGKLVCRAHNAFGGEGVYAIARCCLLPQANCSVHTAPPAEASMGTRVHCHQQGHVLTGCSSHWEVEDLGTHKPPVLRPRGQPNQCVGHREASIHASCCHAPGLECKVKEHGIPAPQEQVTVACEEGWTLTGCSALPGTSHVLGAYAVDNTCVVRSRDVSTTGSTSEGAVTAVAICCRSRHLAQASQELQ

inhibition [1] [%]	SMILES	other results
43.3	Cn1c(=O)c2c(nc(NCCO)n2Cc2cc(F)cc(F)c2)n(C)c1=O	–
41.4	COc1cccc(Cn2c(NCCCCO)nc3c2c(=O)n(C)c(=O)n3C)c1	–
53.3	Cn1c(=O)c2c(nc(NCCO)n2Cc2ccccc2Br)n(C)c1=O	–
16.2	COc1ccc(Cn2c(NCCO)nc3c2c(=O)n(C)c(=O)n3C)cc1OC	–
93.1	Cn1c(=O)c2c(nc(NCCO)n2Cc2ccc(F)cc2)n(C)c1=O	–
79.9	Cn1c(=O)c2c(nc(NCCO)n2Cc2cc(F)ccc2F)n(C)c1=O	–
76.5	COc1ccc(Cn2c(NCCO)nc3c2c(=O)n(C)c(=O)n3C)cc1	–
60.1	COc1cccc(Cn2c(NCCCO)nc3c2c(=O)n(C)c(=O)n3C)c1	–
76.1	Cn1c(=O)c2c(nc(NCCO)n2Cc2ccc(F)cc2F)n(C)c1=O	–
80.4	Cn1c(=O)c2c(nc(NCCO)n2Cc2ccccc2)n(C)c1=O	CC50 at 24 h [2]: 85.5 µM; selectivity ratio [3]: 23.1

Further lines, the molecule ahead of its results:

SMILES	inhibition [1] [%]	other results
COc1cccc(Cn2c(NCCC3CCN(C)C3)nc3c2c(=O)n(C)c(=O)n3C)c1 (configuration not stated)	16.7	–
COc1cccc(Cn2c(N3CCOCC3)nc3c2c(=O)n(C)c(=O)n3C)c1	16.3	–
COc1cccc(Cn2c(N(C)CCO)nc3c2c(=O)n(C)c(=O)n3C)c1	9.4	–
COc1cccc(Cn2c(N3CCC(CCN(C)C)CC3)nc3c2c(=O)n(C)c(=O)n3C)c1	17.4	–
COc1cc(Cn2c(NCCO)nc3c2c(=O)n(C)c(=O)n3C)cc(OC)c1	1.7	–
COc1cccc(Cn2c(N[C@@H](C)CO)nc3c2c(=O)n(C)c(=O)n3C)c1	81	–
COc1cccc(Cn2c(Nc3cccc(O)c3)nc3c2c(=O)n(C)c(=O)n3C)c1	-9.3	–
COc1cccc(Cn2c(NCC(N)=O)nc3c2c(=O)n(C)c(=O)n3C)c1	59.2	–
COc1cccc(Cn2c(NC(CO)CO)nc3c2c(=O)n(C)c(=O)n3C)c1	37	–
CCCn1c(NCCO)nc2c1c(=O)n(C)c(=O)n2C	12.1	–
COc1cccc(Cn2c(N[C@@H](CO)C(C)C)nc3c2c(=O)n(C)c(=O)n3C)c1	18.9	–
Cn1c(=O)c2c(nc(NCCO)n2Cc2ccc(F)c(C(F)(F)F)c2)n(C)c1=O	87	CC50 at 24 h [2]: 55.1 µM; selectivity ratio [3]: 7.1
Cn1c(=O)c2c(nc(NCCO)n2Cc2cccc(Cl)c2F)n(C)c1=O	95.8	CC50 at 24 h [2]: > 200 µM; selectivity ratio [3]: > 35.1; Activity [4]: Non-Toxic; Activity [5]: Non-Toxic; Activity [6]: Non-Toxic; LD50 at 168 h [7]: > 1000 mg/kg; inhibition [8]: inactive; inhibition [9]: Active; inhibition [10]: Dose-Dependent Effect; inhibition [11]: Dose-Dependent Effect; inhibition [12]: Dose-Dependent Effect; fold change (FC) [13]: 1.7; Activity [14]: Active; Activity [15]: inactive; Activity [16]: inactive
